Assay results reported in ChEMBL document CHEMBL1201862, “PubChem BioAssay data set” (2004).
Activity calls are given as the source filed them.

Tests used:
CHO = assay: cytotoxicity in TLR9-MyD88 CHO cells, dose response, cytotoxicity control for TLR9-MyD88 binding inhibitor project, cell-based, luminescence (AID 588339); format: functional, hamster; settings: Cricetulus griseus;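 note: CHO cells stably coexpressing TLR9 and MyD88 fusions from primary screen; compound exposure lasted 48 hours before viability readout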
Beta Lactamase = Beta Lactamase (Pseudomonas aeruginosa, UniProt Q932Y6); assay: beta-lactamase reporter inhibitor potency, dose response, artefact control for TLR9-MyD88 binding inhibitor project, BLA reporter cells, FRET fluorescence (AID 588341); format: cell-based;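 note: cell based assay in CHO-K1 cells stably expressing beta-lactamase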
[1] = target: Induced myeloid leukemia cell differentiation protein Mcl-1 (Homo sapiens, UniProt Q07820); format: functional
Beta-galactosidase = Beta-galactosidase (Escherichia coli, UniProt Q8VNN2); assay: PubChem AID 485352; format: functional
[2] = target: T1, Type-1 angiotensin II receptor (Homo sapiens, UniProt P30556); assay: AT1 receptor antagonists, dose response, selectivity assay for APJ receptor antagonist project, cell-based, uHTS hits (AID 463214); format: functional;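 note: antagonist potency against angiotensin II stimulated AT1 response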
T1 sequence (P30556 whole entry): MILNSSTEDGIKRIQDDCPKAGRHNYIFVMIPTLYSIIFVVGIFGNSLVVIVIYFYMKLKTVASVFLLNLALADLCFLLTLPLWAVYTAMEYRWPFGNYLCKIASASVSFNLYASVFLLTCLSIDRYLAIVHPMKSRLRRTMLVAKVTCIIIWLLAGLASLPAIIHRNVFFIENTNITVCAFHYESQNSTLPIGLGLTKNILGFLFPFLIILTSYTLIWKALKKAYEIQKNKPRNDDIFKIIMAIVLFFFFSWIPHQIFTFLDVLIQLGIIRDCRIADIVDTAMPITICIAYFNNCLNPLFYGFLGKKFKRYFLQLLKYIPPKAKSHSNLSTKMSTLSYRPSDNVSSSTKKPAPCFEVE

[3] = cytotoxicity in KRAS-transformed pancreatic duct cells, primary screen, cell-based, fluorescence, HTS (AID 431); format: functional; settings: Homo sapiens;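 note: cell line used: HPDE-C7K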
INS1 = assay: beta cell apoptosis inhibitors, cytokine rescue, dose response, luminescence, retest (AID 449756); format: functional, cell-based; settings: Rattus norvegicus;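 note: cell death triggered by IL-1 beta plus TNF-alpha plus IFN-gamma mixture; protective hits raise ATP signal compared with cytokine alone wells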
[4] = HeLa cell cytotoxicity, dose response, cytotoxicity control for MgcRacGAP inhibitor project (AID 624300); format: functional
[5] = cytotoxicity in HPDE-C7 cells, cell-based, fluorescence, HTS (AID 430); format: functional; settings: Homo sapiens
[6] = Fluorescence-based cell-based high throughput dose response assay for inhibitors of the interaction of nucleotide-binding oligomerization domain containing 2 (NOD2) and the receptor-interacting serine-threonine kinase 2 (RIPK2).; format: functional; settings: Homo sapiens
[7] = target: T2, Polyadenylate-binding protein 1 (Homo sapiens, UniProt P11940); assay: PABP1 MLLE–PAM2 binding inhibitor potency, dose response, biochemical, fluorescence polarization, FITC-PAM2 peptide (AID 602259); format: functional; settings: read-out: IC50_Mean
[8] = target: T2, Polyadenylate-binding protein 1; assay: PABP1 MLLE–PAM2 interaction inhibitors, dose response, miRNA deadenylation inhibitor project, biochemical, fluorescence polarization, Cy5-PAM2 peptide, secondary (AID 602260); format: functional; settings: read-out: IC50_Mean
[9] = cytotoxicity in MIN6 insulinoma cells, dose response, cytotoxicity control, cell-based, mouse insulinoma (AID 2122); format: functional;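 note: confirmatory high-throughput counterscreen run to flag cytotoxic compounds; mouse MIN-6 beta cells carrying an insulin promoter eGFP reporter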
HeLa = assay: HeLa cell cytotoxicity, dose response, cytotoxicity control for MITF activator project, CellTiter-Glo luminescence, cherry-pick samples (AID 540259); format: functional, cell-based; settings: Homo sapiens
[10] = insulin promoter down-regulators in MIN6 cells, imaging, high-content screening, mouse beta cells (AID 1628); format: functional
Nonstructural protein 1 = Nonstructural protein 1 (Influenza A virus, UniProt Q194T2); format: functional, Influenza A virus (A/California/07/2009(H1N1))
Escherichia coli = assay: microbe, parasite or virus in culture
[11] = inhibitors of SNCA 5'UTR-driven reporter translation, confirmation, H4 neuroglioma cells, luminescence (AID 1988); format: functional, cell-based
Vero [12] = assay: cells; format: functional; settings: Chlorocebus sabaeus
Vero [13] = assay: Vero cell cytotoxicity, cytotoxicity control for flavivirus capping enzyme inhibitors (AID 588742); format: functional; settings: Chlorocebus sabaeus
[14] = target: ATP-dependent molecular chaperone HSP82 (Candida albicans (strain WO-1) (Yeast), UniProt C4YTQ8); assay: loss of DOC-induced GRE-beta-galactosidase reporter signal, dose response, Hsp90 inhibitor project, S. cerevisiae, luminescence (AID 2400); format: functional, cell-based;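 note: beta-galactosidase luminescence from glucocorticoid response element reporter as proxy for Hsp90 function; inhibitor potency where signal loss means Hsp90 inhibition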
[15] = inhibitors of firefly luciferase expression or activity, dose response, H4 neuroglioma cells, luminescence (AID 1990); format: functional, cell-based
[16] = system: Streptococcus sp. 'group A'; assay: growth inhibition of control SK(-) GAS strain, dose response, counter-screen for streptokinase expression inhibitor project, luminescence, kanamycin, BacTiterGlo, confirmation (AID 1900); format: functional, organism-based
[17] = NIH-3T3 fibroblast cytotoxicity, dose response, cytotoxicity control, cell-based, fluorescence, Alamar Blue, secondary assay (AID 2327); format: functional;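 note: NIH-3T3 mouse fibroblasts cultured with fluconazole at 8 µg/mL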
[18] = C. albicans growth with fluconazole, confirmation, fluorescence, retest (AID 2467); format: functional, cell-based
Streptococcus = assay: Group A Streptococcus viability loss, dose response, counter-screen for streptokinase expression inhibitor project, luminescence, BacTiterGlo (AID 1915); format: functional, organism-based;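 note: potency for reduction of bacterial viability or growth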
[19] = target: T3, Serine/threonine-protein phosphatase (Candida dubliniensis (strain CD36 / CBS 7987 / NCPF 3949 / NRRLY-17841) (Yeast), UniProt B9W6M3); assay: calcineurin pathway inhibitors in yeast reporter, dose response, S. cerevisiae, CDRE-lacZ, luminescence, secondary (AID 2388); format: functional, cell-based;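 note: yeast reporter cells carrying a calcineurin-responsive lacZ construct stimulated with calcium chloride; luminescent beta-galactosidase reporter signal in whole cells rather than isolated phosphatase activity; potency for inhibition where a drop in reporter signal means calcineurin blockade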
T3 sequence (B9W6M3 whole entry): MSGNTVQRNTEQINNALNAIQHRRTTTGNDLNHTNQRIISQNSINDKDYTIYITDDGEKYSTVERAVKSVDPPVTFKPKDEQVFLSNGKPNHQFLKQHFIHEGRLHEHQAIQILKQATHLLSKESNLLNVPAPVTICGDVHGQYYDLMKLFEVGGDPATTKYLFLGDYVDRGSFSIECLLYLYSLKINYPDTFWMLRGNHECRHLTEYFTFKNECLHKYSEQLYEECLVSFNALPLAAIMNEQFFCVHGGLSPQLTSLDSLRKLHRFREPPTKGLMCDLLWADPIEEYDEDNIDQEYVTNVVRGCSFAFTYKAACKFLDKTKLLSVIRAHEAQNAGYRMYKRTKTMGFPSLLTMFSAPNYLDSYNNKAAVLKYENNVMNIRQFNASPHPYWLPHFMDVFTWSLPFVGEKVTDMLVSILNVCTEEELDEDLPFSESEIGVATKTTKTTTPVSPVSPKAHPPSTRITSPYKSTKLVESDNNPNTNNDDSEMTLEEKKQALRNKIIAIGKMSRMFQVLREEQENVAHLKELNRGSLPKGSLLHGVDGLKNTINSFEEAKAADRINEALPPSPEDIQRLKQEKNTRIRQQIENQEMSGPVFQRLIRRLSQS

[20] = Luminescence Cell-Based Dose Response HTS to Identify Inhibitors of 5'UTR Stem-Loop Driven Prion Protein mRNA Translation in H4 Neuroglioblastoma Cells. [Related pubchem assays: 1827 (Project Summary), 1813 (Primary HTS)]; format: functional
[21] = target: T4, Aryl hydrocarbon receptor (Homo sapiens, UniProt P35869); settings: Potency;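 note: confirmatory quantitative high-throughput screen measuring activation of the AhR signaling pathway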
T4 sequence (P35869 whole entry): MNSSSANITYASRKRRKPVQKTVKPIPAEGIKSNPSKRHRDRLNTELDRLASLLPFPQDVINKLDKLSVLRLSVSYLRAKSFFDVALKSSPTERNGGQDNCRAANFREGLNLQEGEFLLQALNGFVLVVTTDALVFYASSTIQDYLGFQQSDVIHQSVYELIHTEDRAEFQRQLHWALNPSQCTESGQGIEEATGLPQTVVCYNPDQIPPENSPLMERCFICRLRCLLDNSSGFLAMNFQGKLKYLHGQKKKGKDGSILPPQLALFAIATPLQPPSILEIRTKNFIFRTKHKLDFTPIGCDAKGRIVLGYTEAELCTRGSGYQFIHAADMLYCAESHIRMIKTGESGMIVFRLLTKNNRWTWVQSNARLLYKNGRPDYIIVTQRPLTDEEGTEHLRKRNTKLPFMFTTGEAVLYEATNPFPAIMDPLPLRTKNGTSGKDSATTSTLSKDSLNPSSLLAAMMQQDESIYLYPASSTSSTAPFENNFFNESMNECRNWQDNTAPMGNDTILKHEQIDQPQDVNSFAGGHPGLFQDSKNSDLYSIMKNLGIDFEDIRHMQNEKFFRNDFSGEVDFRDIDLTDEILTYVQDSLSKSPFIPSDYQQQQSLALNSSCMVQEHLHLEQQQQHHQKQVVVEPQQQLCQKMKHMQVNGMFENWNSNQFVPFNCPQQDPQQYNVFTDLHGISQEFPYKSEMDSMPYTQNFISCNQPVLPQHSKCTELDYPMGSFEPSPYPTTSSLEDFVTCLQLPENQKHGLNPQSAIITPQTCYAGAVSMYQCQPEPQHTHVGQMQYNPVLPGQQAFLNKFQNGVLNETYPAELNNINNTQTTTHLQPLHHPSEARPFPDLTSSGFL

[22] = target: Voltage-gated inwardly rectifying potassium channel KCNH2 (Homo sapiens, UniProt Q12809); settings: Potency;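 note: confirmatory quantitative high-throughput screen measuring inhibition of hERG channel activity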
Phospholipase D1 = Phospholipase D1 (Homo sapiens, UniProt Q13393); assay: PLD1 inhibitor potency in cells, dose response (AID 602151); format: functional;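 note: cellular PLD1 assay in Calu-1 cells stimulated with PMA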
Phospholipase D2 = Phospholipase D2 (Homo sapiens, UniProt O14939); assay: PLD2 inhibitor potency in cells, dose response (AID 602147); format: functional;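 note: cellular assay in HEK293 cells overexpressing GFP-tagged PLD2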
[23] = target: Latent membrane protein 1 (Human herpesvirus 4 (strain B95-8), UniProt P03230); assay: TES1-eGFP NF-kB reporter inhibition versus Tet-On dsRED, dose response, selectivity assay for LMP1 NF-kB inhibitor project, imaging, HEK293T, dual-color eGFP/dsRED, cherry-picks (AID 588398); format: functional, cell-based
[24] = Luminescence Cell-Based Dose Confirmation HTS to Identify Inhibitors of Platelet Dense Granule Release. [Related pubchem assays: 1663 (Primary HTS), 1678 (Summary of Project)]; format: functional
[25] = target: Luciferin 4-monooxygenase (Photinus pyralis, UniProt P08659); assay: firefly luciferase enzyme inhibitors, dose response, biochemical, luminescence (AID 1891)
HEK293 = assay: inhibitors of LMP1-driven NF-kB reporter, dose response, cell-based, HEK293, luciferase, cherry-pick (AID 588343); format: functional; settings: Homo sapiens
[26] = target: Heat shock protein HSP 90-alpha (Homo sapiens, UniProt P07900); format: functional, organism-based
[27] = microbe, parasite or virus in culture; format: functional; settings: Mycobacterium tuberculosis

Sequence of Phospholipase D2 (O14939 whole entry): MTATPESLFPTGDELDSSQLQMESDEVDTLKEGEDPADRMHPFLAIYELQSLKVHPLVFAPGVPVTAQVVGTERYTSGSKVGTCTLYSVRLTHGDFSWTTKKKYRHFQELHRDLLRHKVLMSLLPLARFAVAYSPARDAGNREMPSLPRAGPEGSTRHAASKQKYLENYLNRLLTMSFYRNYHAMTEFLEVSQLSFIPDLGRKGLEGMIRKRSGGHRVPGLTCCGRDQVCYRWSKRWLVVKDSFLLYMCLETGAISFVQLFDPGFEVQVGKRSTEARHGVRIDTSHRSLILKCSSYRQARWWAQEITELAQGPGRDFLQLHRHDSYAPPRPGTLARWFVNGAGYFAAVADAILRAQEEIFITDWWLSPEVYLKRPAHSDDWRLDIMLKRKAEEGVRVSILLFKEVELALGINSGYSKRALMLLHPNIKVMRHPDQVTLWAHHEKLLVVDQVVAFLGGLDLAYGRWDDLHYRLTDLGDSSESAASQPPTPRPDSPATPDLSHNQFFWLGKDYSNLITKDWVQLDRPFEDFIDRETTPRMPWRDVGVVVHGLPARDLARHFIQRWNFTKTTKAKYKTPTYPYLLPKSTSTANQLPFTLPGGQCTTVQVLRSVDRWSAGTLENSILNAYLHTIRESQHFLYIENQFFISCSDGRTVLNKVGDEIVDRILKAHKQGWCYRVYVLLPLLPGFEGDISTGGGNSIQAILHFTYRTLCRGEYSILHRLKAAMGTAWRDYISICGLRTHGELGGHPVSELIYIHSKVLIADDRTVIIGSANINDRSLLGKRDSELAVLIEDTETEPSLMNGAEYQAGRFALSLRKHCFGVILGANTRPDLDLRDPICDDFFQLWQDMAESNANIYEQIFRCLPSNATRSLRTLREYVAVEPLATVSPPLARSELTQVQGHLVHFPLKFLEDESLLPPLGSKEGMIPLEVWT
Sequence of Beta-galactosidase (Q8VNN2 whole entry): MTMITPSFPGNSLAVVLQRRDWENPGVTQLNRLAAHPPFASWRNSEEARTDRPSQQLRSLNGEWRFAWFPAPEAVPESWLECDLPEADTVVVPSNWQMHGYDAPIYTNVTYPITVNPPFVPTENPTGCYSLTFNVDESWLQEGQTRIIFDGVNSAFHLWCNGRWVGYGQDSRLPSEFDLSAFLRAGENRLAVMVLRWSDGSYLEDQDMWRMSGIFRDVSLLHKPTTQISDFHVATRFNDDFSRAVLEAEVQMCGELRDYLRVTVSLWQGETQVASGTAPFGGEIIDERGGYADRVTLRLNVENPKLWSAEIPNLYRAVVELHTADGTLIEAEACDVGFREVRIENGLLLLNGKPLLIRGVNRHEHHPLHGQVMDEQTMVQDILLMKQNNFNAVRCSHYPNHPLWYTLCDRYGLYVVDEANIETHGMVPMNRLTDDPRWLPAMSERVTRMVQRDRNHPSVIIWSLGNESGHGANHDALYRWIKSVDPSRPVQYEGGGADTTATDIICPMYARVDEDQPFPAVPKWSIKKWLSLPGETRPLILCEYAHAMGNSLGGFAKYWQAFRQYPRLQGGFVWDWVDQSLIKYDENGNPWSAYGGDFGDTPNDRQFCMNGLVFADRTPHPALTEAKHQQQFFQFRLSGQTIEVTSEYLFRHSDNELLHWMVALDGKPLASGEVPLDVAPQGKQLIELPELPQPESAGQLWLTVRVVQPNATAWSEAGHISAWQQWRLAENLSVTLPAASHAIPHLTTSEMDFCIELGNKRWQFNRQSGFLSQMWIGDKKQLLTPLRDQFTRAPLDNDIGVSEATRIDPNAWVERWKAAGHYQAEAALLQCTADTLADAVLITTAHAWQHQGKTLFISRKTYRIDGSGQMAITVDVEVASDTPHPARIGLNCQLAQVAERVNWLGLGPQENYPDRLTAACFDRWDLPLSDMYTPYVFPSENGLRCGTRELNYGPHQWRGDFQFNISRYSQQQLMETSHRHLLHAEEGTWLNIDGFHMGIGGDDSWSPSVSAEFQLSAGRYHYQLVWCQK
T2 sequence (P11940 whole entry): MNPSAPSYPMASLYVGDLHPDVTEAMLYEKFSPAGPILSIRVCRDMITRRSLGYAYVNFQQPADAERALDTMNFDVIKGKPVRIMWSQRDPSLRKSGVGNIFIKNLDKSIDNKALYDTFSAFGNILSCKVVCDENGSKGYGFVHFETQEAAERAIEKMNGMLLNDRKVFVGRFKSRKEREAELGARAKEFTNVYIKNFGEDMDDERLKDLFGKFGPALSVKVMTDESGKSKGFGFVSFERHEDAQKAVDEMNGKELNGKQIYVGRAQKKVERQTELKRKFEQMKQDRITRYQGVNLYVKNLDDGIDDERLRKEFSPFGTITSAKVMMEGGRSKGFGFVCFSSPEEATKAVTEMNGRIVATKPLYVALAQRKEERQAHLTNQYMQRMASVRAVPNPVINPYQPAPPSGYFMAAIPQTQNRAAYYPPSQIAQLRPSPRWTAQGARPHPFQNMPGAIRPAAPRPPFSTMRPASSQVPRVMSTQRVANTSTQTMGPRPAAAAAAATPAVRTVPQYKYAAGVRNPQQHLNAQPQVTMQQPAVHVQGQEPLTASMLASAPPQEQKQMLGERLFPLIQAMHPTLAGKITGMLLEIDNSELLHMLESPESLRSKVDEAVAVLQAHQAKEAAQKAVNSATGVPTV
Sequence of Phospholipase D1 (Q13393 whole entry): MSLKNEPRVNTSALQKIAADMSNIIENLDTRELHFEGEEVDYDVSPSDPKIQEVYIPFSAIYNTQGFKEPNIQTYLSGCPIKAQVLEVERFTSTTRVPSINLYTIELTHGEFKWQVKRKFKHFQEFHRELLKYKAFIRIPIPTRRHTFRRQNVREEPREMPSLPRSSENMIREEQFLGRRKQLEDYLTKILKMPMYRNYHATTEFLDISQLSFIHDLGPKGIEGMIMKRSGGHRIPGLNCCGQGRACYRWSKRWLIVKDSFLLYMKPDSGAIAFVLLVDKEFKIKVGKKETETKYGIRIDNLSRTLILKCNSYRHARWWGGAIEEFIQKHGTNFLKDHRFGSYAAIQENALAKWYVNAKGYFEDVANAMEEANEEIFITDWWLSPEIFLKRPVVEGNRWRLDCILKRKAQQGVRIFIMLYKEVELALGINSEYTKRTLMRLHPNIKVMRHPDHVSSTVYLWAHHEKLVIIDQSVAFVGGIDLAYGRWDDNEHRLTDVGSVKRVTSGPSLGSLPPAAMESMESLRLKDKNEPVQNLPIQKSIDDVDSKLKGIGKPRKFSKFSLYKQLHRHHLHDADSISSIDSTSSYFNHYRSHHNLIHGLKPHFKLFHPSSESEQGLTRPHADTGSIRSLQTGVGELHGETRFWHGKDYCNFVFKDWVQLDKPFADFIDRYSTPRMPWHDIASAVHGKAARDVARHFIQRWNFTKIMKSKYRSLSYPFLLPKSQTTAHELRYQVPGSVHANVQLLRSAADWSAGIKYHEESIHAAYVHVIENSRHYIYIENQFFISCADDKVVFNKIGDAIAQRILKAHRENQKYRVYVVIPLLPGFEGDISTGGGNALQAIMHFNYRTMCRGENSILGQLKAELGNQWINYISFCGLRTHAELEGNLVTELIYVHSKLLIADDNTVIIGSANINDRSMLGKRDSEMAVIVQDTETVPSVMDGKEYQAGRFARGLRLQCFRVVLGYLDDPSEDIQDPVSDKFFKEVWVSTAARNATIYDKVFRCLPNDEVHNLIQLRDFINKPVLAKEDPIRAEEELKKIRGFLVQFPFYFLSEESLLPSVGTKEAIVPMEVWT
Sequence of Nonstructural protein 1 (Q194T2 whole entry): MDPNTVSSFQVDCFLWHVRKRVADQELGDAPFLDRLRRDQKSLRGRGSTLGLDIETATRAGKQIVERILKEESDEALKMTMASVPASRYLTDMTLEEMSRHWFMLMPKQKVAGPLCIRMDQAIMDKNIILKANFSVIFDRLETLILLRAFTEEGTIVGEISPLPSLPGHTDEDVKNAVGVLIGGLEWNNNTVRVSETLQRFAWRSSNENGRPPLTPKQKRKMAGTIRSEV
Sequence of ATP-dependent molecular chaperone HSP82 (C4YTQ8 whole entry): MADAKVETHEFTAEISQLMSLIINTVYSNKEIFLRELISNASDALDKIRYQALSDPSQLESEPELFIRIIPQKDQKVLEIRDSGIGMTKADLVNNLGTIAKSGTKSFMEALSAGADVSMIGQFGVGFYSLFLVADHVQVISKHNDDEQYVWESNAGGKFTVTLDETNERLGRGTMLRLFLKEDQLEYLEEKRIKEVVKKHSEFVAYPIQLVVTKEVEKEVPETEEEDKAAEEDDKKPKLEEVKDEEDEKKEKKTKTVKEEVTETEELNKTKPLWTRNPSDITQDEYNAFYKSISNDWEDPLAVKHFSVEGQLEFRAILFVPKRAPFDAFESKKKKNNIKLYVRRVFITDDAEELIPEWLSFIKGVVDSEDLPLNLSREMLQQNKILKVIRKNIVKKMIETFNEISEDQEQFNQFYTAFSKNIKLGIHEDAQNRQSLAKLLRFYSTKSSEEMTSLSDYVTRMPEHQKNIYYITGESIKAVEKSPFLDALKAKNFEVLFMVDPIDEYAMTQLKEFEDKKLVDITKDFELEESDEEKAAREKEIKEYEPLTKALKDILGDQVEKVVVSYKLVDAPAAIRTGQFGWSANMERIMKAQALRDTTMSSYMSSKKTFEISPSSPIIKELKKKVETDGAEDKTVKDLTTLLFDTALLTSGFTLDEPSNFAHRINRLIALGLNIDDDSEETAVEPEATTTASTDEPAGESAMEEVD
Sequence of Induced myeloid leukemia cell differentiation protein Mcl-1 (Q07820 whole entry): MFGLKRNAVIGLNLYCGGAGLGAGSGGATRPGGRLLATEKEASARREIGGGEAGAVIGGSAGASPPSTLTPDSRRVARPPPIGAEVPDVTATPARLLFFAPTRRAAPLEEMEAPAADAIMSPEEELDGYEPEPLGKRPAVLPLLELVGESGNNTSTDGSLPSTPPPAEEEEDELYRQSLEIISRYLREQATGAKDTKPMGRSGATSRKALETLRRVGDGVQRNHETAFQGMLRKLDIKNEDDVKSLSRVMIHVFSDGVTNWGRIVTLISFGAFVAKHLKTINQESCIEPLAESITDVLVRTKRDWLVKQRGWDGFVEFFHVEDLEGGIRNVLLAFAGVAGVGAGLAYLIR

Compound: COc1ccc(C(=O)c2sc3nc(-c4ccc(OC)cc4)ccc3c2N)cc1
- IC50 (CHO): 36.8 µM (inactive)
- IC50 (Beta Lactamase): 4.44 µM (active)
- IC50 [1]: 2.99 µM (not active)

Compound: CC1(C)CC(=O)C2=C(C1)OC1=C(C(=O)CC(C)(C)C1)C2c1ccc(O)cc1O
- EC50 (Beta-galactosidase): > 40 µM (inactive)
- IC50 [2]: 9.76 µM (active)
- EC50 [3]: 7.07 µM (active)
- AC50 (INS1): 6.76 µM (active)
- CC50 [4]: 50 µM (active)
- EC50 [5]: 5.63 µM (active)
- IC50 [6]: 1.36 µM (active)

Compound: CCCCN1C(=O)/C(=C2\SC(N3CCCCC3)=NC2=O)c2ccccc21
- IC50 [7]: > 66 µM (inactive)
- IC50 [8]: > 66 µM (inactive)
- IC50 [9]: 1.54 µM (active)
- AC50 (HeLa): 37.9 µM (active)
- IC50 [10]: 2.13 µM (active)
- IC50 (Nonstructural protein 1): 27.4 µM (active)

Compound: O=S(=O)(c1ccc2nc(O)sc2c1)N1CCCCC1
- AC50 (Escherichia coli): > 150 µM (inactive)

Compound: Cc1cccc(/C=C/C(=O)c2cc(Br)ccc(=O)c2O)c1
- EC50 [11]: 9.67 µM (active)
- CC50 (Vero [12]): 7.95 µM (active)
- CC50 (Vero [13]): 15.1 µM (active)
- EC50 [14]: 6.88 µM (active)
- EC50 [15]: 11.6 µM (active)
- EC50 [16]: 1.78 µM (active)
- EC50 [17]: 42.4 µM (inconclusive)
- EC50 [18]: 1.11 µM (active)
- EC50 (Streptococcus): 2.77 µM (active)
- EC50 [19]: > 180 µM (inactive)
- EC50 [20]: > 120 µM (not active)

Compound: c1ccc(Nc2ccc(Nc3ccccc3)cc2)cc1
- AC50 (HeLa): 43.6 µM (active)
- AC50 [21]: 50.1 µM (inconclusive)
- AC50 [22]: 20 µM (inconclusive)

Compound: O=C(NCCN1CCC2(CC1)C(=O)NCN2c1cccc(F)c1)c1cccc(F)c1
- IC50 (Phospholipase D1): 24 µM (active)
- IC50 (Phospholipase D2): 1.49 µM (active)

Compound: COc1ccc(C(=O)Nc2ccc3[nH]ccc3c2)cc1
- AC50 [23]: 27.2 µM (active)
- EC50 [24]: 5.61 µM (active)
- EC50 [25]: 3.28 µM (active)
- AC50 (HEK293): 2.59 µM (active)
- EC50 [11]: 7.91 µM (active)
- EC50 [20]: 13.6 µM (active)

Compound: Cc1ccc(C(=O)N[C@@H](C)CN2CCC(n3c(=O)[nH]c4cc(Cl)ccc43)CC2)cc1
- IC50 (Phospholipase D1): 0.011 µM (active)
- IC50 (Phospholipase D2): 1.05 µM (active)

Compound: CNc1ccc2oc(C[C@H]3O[C@@]4(CC[C@H]3C)O[C@H]([C@H](C)C(=O)c3ccc[nH]3)[C@H](C)C[C@H]4C)nc2c1C(=O)O [CALCIMYCIN]
- AC50 [26]: 1.07 µM (active)
- EC50 (Beta-galactosidase): > 40 µM (inactive)
- IC50 [2]: > 40 µM (not active)
- EC50 [11]: 0.172 µM (active)
- CC50 [27]: 0.319 µM (active)
- AC50 (INS1): 2.08 µM (active)
- EC50 [15]: 0.293 µM (active)
- EC50 [16]: < 0.06 µM (active)
- EC50 (Streptococcus): 0.128 µM (active)
- EC50 [20]: 0.267 µM (active)
